21 compounds from patent US10766884B2 (Pfizer Inc., priority 2018, dated 2020) can be followed below.

The structures appear in SMILES notation.

One experiment has as its target CDK4/Cyclin D1 (Homo sapiens (Human), UniProt P11802). Briefly: CDK4/Cyclin D1 mobility shift assay. The conditions noted are these: activated CDK4/Cyclin D1, 3.5 mM ATP, Morrison fit; read-out: CDK4D1 Ki. Type of experiment: biochemical. The method, then:
The purpose CDK4/Cyclin D1 assay is to evaluate the inhibition (% inhibition, Kiapp and Ki values) in the presence of small molecule inhibitors by using a fluorescence based microfluidic mobility shift assay. […] The mobility shift assay electrophoretically separates the fluorescently labeled peptides (substrate and phosphorylated product) following the kinase reaction. Both substrate and product are measured and the ratio of these values is used to generate % Conversion of substrate to product by the LabChip EZ Reader.
The reaction was stopped after 195 minutes by the addition of 50 μL of 30 mM EDTA. Ki determinations were made from a plot of the fractional velocity as a function of inhibitor concentration fit to the Morrison equation with the enzyme concentration as a variable.
(§1) For CDK4 and CDK6 mobility shift assays, see also Morrison, J. F. (1969) Kinetics of the reversible inhibition of enzyme-catalysed reactions by tight-binding inhibitors, Biochimica et biophysica acta 185, 269-286; and Murphy, D. J. (2004) Determination of accurate KI values for tight-binding enzyme inhibitors: an in silico study of experimental error and assay design, Analytical biochemistry 327, 61-67.

A further experiment concerns the target CDK6/Cyclin D3 (Homo sapiens (Human), UniProt Q00534). Briefly: CDK6/Cyclin D3 mobility shift assay. The conditions noted are these: activated CDK6/Cyclin D3, 3.5 mM ATP, Morrison fit; read-out: CDK6_D3 Ki. Type of experiment: biochemical. On the procedure: The purpose of the CDK6/Cyclin D3 assay is to evaluate the inhibition (% inhibition, Kiapp and Ki values) in the presence of small molecule inhibitors by using a fluorescence based microfluidic mobility shift assay. […] The mobility shift assay electrophoretically separates the fluorescently labeled peptides (substrate and phosphorylated product) following the kinase reaction. Both substrate and product are measured and the ratio of these values is used to generate % conversion of substrate to product by the LabChip EZ Reader.
The reaction was stopped after 95 minutes by the addition of 50 μL of 30 mM EDTA. Ki determinations were made from a plot of the fractional velocity as a function of inhibitor concentration fit to the Morrison equation with the enzyme concentration as a variable.
as §1

Chain of CDK4/Cyclin D1 (P11802 whole entry): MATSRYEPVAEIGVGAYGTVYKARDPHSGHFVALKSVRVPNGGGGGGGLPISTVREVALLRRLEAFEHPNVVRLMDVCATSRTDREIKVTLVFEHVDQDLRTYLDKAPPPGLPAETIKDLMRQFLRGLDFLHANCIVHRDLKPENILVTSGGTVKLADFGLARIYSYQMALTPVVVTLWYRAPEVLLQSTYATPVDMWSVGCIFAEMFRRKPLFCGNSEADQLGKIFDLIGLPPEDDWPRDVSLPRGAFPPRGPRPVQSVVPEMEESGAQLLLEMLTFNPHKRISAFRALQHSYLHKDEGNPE
Chain of CDK4/Cyclin D1 (P24385 whole entry partner): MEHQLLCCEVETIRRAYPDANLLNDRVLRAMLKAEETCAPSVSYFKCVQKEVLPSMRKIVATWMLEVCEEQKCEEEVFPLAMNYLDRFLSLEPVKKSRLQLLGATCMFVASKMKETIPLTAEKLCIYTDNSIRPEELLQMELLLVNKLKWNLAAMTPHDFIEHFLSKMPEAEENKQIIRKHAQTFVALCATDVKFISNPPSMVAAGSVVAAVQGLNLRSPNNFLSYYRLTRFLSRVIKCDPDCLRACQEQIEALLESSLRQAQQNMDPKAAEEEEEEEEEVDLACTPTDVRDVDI
Chain of CDK6/Cyclin D3 (Q00534 whole entry): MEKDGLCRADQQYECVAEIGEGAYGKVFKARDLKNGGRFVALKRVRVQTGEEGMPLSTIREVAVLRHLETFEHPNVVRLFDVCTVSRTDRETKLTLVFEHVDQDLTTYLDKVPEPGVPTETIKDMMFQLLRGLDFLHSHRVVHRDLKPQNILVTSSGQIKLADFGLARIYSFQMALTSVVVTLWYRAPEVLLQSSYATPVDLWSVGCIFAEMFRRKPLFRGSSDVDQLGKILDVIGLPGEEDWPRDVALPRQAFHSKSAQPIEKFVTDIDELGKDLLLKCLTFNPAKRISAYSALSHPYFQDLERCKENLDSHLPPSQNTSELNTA
Chain of CDK6/Cyclin D3 (P30281 whole entry partner): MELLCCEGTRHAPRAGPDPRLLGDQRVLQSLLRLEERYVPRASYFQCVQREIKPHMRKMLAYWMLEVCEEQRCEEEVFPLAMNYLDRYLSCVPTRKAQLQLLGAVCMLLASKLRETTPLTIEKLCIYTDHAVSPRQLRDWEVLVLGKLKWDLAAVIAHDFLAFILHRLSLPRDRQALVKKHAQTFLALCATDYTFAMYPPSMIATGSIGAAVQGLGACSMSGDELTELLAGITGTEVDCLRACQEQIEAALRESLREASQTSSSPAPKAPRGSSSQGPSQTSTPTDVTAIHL

The term Ki denotes a dissociation constant, usually derived from enzyme kinetics or from competition with a known ligand. With `CC(C)n1c([C@@H](C)O)nc2c(F)cc(-c3cc(N[C@@H]4CCN(S(C)(=O)=O)C[C@H]4O)ncc3Cl)cc21` [Example D03, (3R,4R)-4-[(5-chloro-4-{4-fluoro-2-[(1R)-1-hydroxyethyl]-1-(propan-2-yl)-1H-benzimidazol-6-yl}pyridin-2-yl)amino]-1-(methanesulfonyl)piperidin-3-ol], the inhibition constant Ki on CDK4/Cyclin D1 came to 0.6 nM; at CDK6/Cyclin D3, 4.7 nM.
For the compound `CN1Cc2nc3c(F)cc(-c4nc(N[C@@H]5CCOC[C@H]5O)ncc4Cl)cc3n2C(C)(C)C1` [Example A22], the figures for the Ki on CDK4/Cyclin D1 and on CDK6/Cyclin D3 were 3.2 nM and 49.7 nM, respectively.
`CC(C)n1c(C(N)=O)nc2c(F)cc(-c3nc(N[C@@H]4CCOC[C@H]4O)ncc3Cl)cc21` [Example A33]: the Ki amounted to 8.3 nM at CDK4/Cyclin D1 and 78 nM at CDK6/Cyclin D3.
With `CC(C)n1c(C2(N)CC2)nc2c(F)cc(-c3nc(N[C@@H]4CCOC[C@H]4O)ncc3Cl)cc21` [Example A43, 3-({4-[2-(1-aminocyclopropyl)-4-fluoro-1-(propan-2-yl)-1H-benzimidazol-6-yl]-5-chloropyrimidin-2-yl}amino)-1,5-anhydro-2,3-dideoxy-D-threo-pentitol], the inhibitory constant (Ki) on CDK4/Cyclin D1 came out at 4.8 nM; on CDK6/Cyclin D3, 44 nM.
On the same counts, the results for `CC1(n2c(CO)nc3c(F)cc(-c4nc(N[C@@H]5CCOC[C@H]5O)ncc4Cl)cc32)CC1` [Example A63, 1,5-anhydro-3-({5-chloro-4-[4-fluoro-2-(hydroxymethyl)-1-(1-methylcyclopropyl)-1H-benzimidazol-6-yl]pyrimidin-2-yl}amino)-2,3-dideoxy-D-threo-pentitol] are 0.9 nM and 9.7 nM.
Regarding `CC(C)n1c([C@H](C)O)nc2c(F)cc(-c3cc(N[C@@H]4CCN(S(C)(=O)=O)C[C@H]4O)ncc3Cl)cc21` [Example D01, (3R,4R)-4-[(5-chloro-4-{4-fluoro-2-[(1S)-1-hydroxyethyl]-1-(propan-2-yl)-1H-benzimidazol-6-yl}pyridin-2-yl)amino]-1-(methanesulfonyl)piperidin-3-ol], the inhibition constant Ki worked out at 0.4 nM on CDK4/Cyclin D1 and 1.7 nM on CDK6/Cyclin D3.
With `CC(C)n1cnc2c(F)cc(-c3nc(N[C@@H]4CCN(C(=O)C5(C)COC5)C[C@H]4O)ncc3Cl)cc21` [Example F19, [(3R,4R)-4-({5-chloro-4-[4-fluoro-1-(propan-2-yl)-1H-benzimidazol-6-yl]pyrimidin-2-yl}amino)-3-hydroxypiperidin-1-yl](3-methyloxetan-3-yl)methanone], the Ki came out at 1.5 nM at CDK4/Cyclin D1 and 11.8 nM on CDK6/Cyclin D3.
Regarding `C[C@@H](N)c1nc2c(F)cc(-c3nc(N[C@@H]4CCOC[C@H]4O)ncc3Cl)cc2n1C(C)(C)C` [Example A42, 3-[(4-{2-[(1R)-1-aminoethyl]-1-tert-butyl-4-fluoro-1H-benzimidazol-6-yl}-5-chloropyrimidin-2-yl)amino]-1,5-anhydro-2,3-dideoxy-D-threo-pentitol], the inhibition constant Ki worked out at 6 nM on CDK4/Cyclin D1 and 54.7 nM at CDK6/Cyclin D3.
On the same counts, the results for `COC(=O)N1CC[C@@H](Nc2ncc(Cl)c(-c3cc(F)c4ncn(C5CCOC5)c4c3)n2)[C@H](O)C1` (single isomer, unassigned) [Example F02] are 4.3 nM and 39.9 nM.
Turning to `COC(=O)N1CC[C@@H](Nc2ncc(Cl)c(-c3cc(F)c4ncn(C5CCOC5)c4c3)n2)[C@H](O)C1` (single isomer, unassigned) [Example F03], the results for the Ki at CDK4/Cyclin D1 and on CDK6/Cyclin D3 were 2.7 nM and 26.4 nM, respectively.
Consider `Cc1nc2c(F)cc(-c3nc(N[C@@H]4CCN(S(C)(=O)=O)C[C@H]4O)ncc3Cl)cc2n1[C@@H](C)CN` [Example A39, (3R,4R)-4-[(4-{1-[(2S)-1-aminopropan-2-yl]-4-fluoro-2-methyl-1H-benzimidazol-6-yl}-5-chloropyrimidin-2-yl)amino]-1-(methanesulfonyl)piperidin-3-ol], for which the Ki on CDK4/Cyclin D1 came out at 1.3 nM; on CDK6/Cyclin D3, 12.3 nM.
As for `CC(C)(F)Cn1c(CO)nc2c(F)cc(-c3nc(N[C@@H]4CCOC[C@H]4O)ncc3Cl)cc21` [Example A64, 1,5-anhydro-3-({5-chloro-4-[4-fluoro-1-(2-fluoro-2-methylpropyl)-2-(hydroxymethyl)-1H-benzimidazol-6-yl]pyrimidin-2-yl}amino)-2,3-dideoxy-D-threo-pentitol], the inhibitory constant (Ki) at CDK4/Cyclin D1 worked out at 2 nM; on CDK6/Cyclin D3, 10.7 nM.
As to `COc1cnc(N[C@@H]2CCN(S(C)(=O)=O)C[C@H]2O)nc1-c1cc(F)c2nc(C)n(C(C)C)c2c1` [Example A82, (3R,4R)-4-({4-[4-fluoro-2-methyl-1-(propan-2-yl)-1H-benzimidazol-6-yl]-5-methoxypyrimidin-2-yl}amino)-1-(methanesulfonyl)piperidin-3-ol], the inhibitory constant (Ki) on CDK4/Cyclin D1 was 3.8 nM; at CDK6/Cyclin D3, 24.6 nM.
As to `CC(=O)c1nc2c(F)cc(-c3nc(N[C@@H]4CCN(S(C)(=O)=O)C[C@H]4O)ncc3Cl)cc2n1C(C)C` [Example G01, 1-[6-(5-chloro-2-{[(3R,4R)-3-hydroxy-1-(methanesulfonyl)piperidin-4-yl]amino}pyrimidin-4-yl)-4-fluoro-1-(propan-2-yl)-1H-benzimidazol-2-yl]ethan-1-one], the Ki on CDK4/Cyclin D1 stood at 0.4 nM; on CDK6/Cyclin D3, 5.9 nM.
On the same counts, the results for `Cc1nc2c(F)cc(-c3nc(N[C@@H]4CCN(S(C)(=O)=O)C[C@H]4O)ncc3Cl)cc2n1C1CC1` [Example A72, (3R,4R)-4-{[5-chloro-4-(1-cyclopropyl-4-fluoro-2-methyl-1H-benzimidazol-6-yl)pyrimidin-2-yl]amino}-1-(methanesulfonyl)piperidin-3-ol] are 0.3 nM and 2.1 nM.
On to `Cc1nc2c(F)cc(-c3nc(N[C@@H]4CCN(S(C)(=O)=O)C[C@H]4O)ncc3Cl)cc2n1C` [Example A08], for which the inhibition constant (Ki) is 1.1 nM on CDK4/Cyclin D1 and 4.8 nM at CDK6/Cyclin D3.
`Cc1nc2ccc(-c3nc(N[C@@H]4CCN(S(C)(=O)=O)C[C@H]4O)ncc3Cl)nc2n1C(C)C` [Example A86, (3R,4R)-4-({5-chloro-4-[2-methyl-3-(propan-2-yl)-3H-imidazo[4,5-b]pyridin-5-yl]pyrimidin-2-yl}amino)-1-(methanesulfonyl)piperidin-3-ol]: the Ki on CDK4/Cyclin D1 stood at 4.7 nM; at CDK6/Cyclin D3, 23.5 nM.
On the same counts, the results for `CS(=O)(=O)N1CC[C@@H](Nc2ncc(Cl)c(-c3cc(F)c4nc(CO)n(CC(F)(F)F)c4c3)n2)[C@H](O)C1` [Example A90, (3R,4R)-4-({5-chloro-4-[4-fluoro-2-(hydroxymethyl)-1-(2,2,2-trifluoroethyl)-1H-benzimidazol-6-yl]pyrimidin-2-yl}amino)-1-(methanesulfonyl)piperidin-3-ol] are 0.2 nM and 1.1 nM.
As for `Cc1nc2c(F)cc(-c3nc(N[C@H]4CCN(C)C[C@@H]4O)ncc3F)cc2n1C(C)C` (single isomer, unassigned) [Example F07], the Ki at CDK4/Cyclin D1 amounted to 15.3 nM; at CDK6/Cyclin D3 it was 125 nM.
For `CC(C)n1cnc2c(F)cc(-c3nc(N[C@@H]4CCN(S(C)(=O)=O)C[C@H]4O)ncc3C(F)(F)F)cc21` [Example B02, (3R,4R)-4-({4-[4-fluoro-1-(propan-2-yl)-1H-benzimidazol-6-yl]-5-(trifluoromethyl)pyrimidin-2-yl}amino)-1-(methanesulfonyl)piperidin-3-ol], the values for the inhibition constant (Ki) at CDK4/Cyclin D1 and at CDK6/Cyclin D3 were 7.3 nM and 27.1 nM, respectively.
In the case of `Cc1nc2c(F)cc(-c3nc(N[C@H]4CCN(S(C)(=O)=O)C[C@@H]4O)ncc3F)cc2n1C(C)C` [Example F14, (3S,4S)-4-({5-fluoro-4-[4-fluoro-2-methyl-1-(propan-2-yl)-1H-benzimidazol-6-yl]pyrimidin-2-yl}amino)-1-(methanesulfonyl)piperidin-3-ol], the inhibition constant (Ki) on CDK4/Cyclin D1 is 3.6 nM; on CDK6/Cyclin D3 it was 30.8 nM.
